Data published in ChEMBL document CHEMBL4346705, “(±)-trans-Dihydronarciclasine and (±)-trans-dihydrolycoricidine analogues modified in their ring A: Evaluation of their anticancer activity and a SAR study” (2019).

Key:
Type in all cases: functional
[1] = tested on: SNB-75; test: Antiproliferative activity against human SNB75 cells assessed as cell viability at 10^-5 M incubated for 48 hrs by sulforhodamine B assay relative to control; conditions: SNB-75, 48 h, read-out: Activity
[2] = tested on: CAKI-1; test: Antiproliferative activity against human Caki1 cells assessed as cell viability at 10^-5 M incubated for 48 hrs by sulforhodamine B assay relative to control; conditions: CAKI-1, 48 h, read-out: Activity
[3] = tested on: MCF7; test: Antiproliferative activity against human MCF7 cells assessed as cell viability at 10^-5 M incubated for 48 hrs by sulforhodamine B assay relative to control; conditions: MCF7, 48 h, read-out: Activity
[4] = tested on: NCI/ADR-RES; test: Antiproliferative activity against human NCI-ADR-RES cells assessed as cell viability at 10^-5 M incubated for 48 hrs by sulforhodamine B assay relative to control; conditions: read-out: Activity
[5] = tested on: SK-MEL-2; test: Antiproliferative activity against human SK-MEL-2 cells assessed as cell viability at 10^-5 M incubated for 48 hrs by sulforhodamine B assay relative to control; conditions: SK-MEL-2, 48 h, read-out: Activity
[6] = tested on: T47D; test: Antiproliferative activity against human T47D cells assessed as cell viability at 10^-5 M incubated for 48 hrs by sulforhodamine B assay relative to control; conditions: read-out: Activity
[7] = tested on: HOP-92; test: Antiproliferative activity against human HOP92 cells assessed as cell viability at 10^-5 M incubated for 48 hrs by sulforhodamine B assay relative to control; conditions: HOP-92, 48 h, read-out: Activity
[8] = tested on: HT-29; test: Antiproliferative activity against human HT-29 cells assessed as cell viability at 10^-5 M incubated for 48 hrs by sulforhodamine B assay relative to control; conditions: HT-29, 48 h, read-out: Activity
[9] = tested on: LOX IMVI; test: Antiproliferative activity against human LOXIMVI cells assessed as cell viability at 10^-5 M incubated for 48 hrs by sulforhodamine B assay relative to control; conditions: read-out: Activity
[10] = tested on: RXF 393; test: Antiproliferative activity against human RXF393 cells assessed as cell viability at 10^-5 M incubated for 48 hrs by sulforhodamine B assay relative to control; conditions: RXF 393, 48 h, read-out: Activity
[11] = tested on: A498; test: Antiproliferative activity against human A498 cells assessed as cell viability at 10^-5 M incubated for 48 hrs by sulforhodamine B assay relative to control; conditions: A498, 48 h, read-out: Activity
[12] = tested on: MDA-MB-435; test: Antiproliferative activity against human MDA-MB-435 cells assessed as cell viability at 10^-5 M incubated for 48 hrs by sulforhodamine B assay relative to control; conditions: MDA-MB-435, 48 h, read-out: Activity
[13] = tested on: COLO 205; test: Antiproliferative activity against human COLO205 cells assessed as cell viability at 10^-5 M incubated for 48 hrs by sulforhodamine B assay relative to control; conditions: COLO 205, 48 h, read-out: Activity
[14] = tested on: OVCAR-5; test: Antiproliferative activity against human OVCAR5 cells assessed as cell viability at 10^-5 M incubated for 48 hrs by sulforhodamine B assay relative to control; conditions: OVCAR-5, 48 h, read-out: Activity
[15] = tested on: K562; test: Antiproliferative activity against human K562 cells assessed as cell viability at 10^-5 M incubated for 48 hrs by sulforhodamine B assay relative to control; conditions: K562, 48 h, read-out: Activity
[16] = tested on: SK-MEL-5; test: Antiproliferative activity against human SK-MEL-5 cells assessed as cell viability at 10^-5 M incubated for 48 hrs by sulforhodamine B assay relative to control; conditions: SK-MEL-5, 48 h, read-out: Activity
[17] = tested on: OVCAR-4; test: Antiproliferative activity against human OVCAR4 cells assessed as cell viability at 10^-5 M incubated for 48 hrs by sulforhodamine B assay relative to control; conditions: OVCAR-4, 48 h, read-out: Activity
[18] = tested on: SW-620; test: Antiproliferative activity against human SW620 cells assessed as cell viability at 10^-5 M incubated for 48 hrs by sulforhodamine B assay relative to control; conditions: SW-620, 48 h, read-out: Activity
[19] = tested on: SF-295; test: Antiproliferative activity against human SF295 cells assessed as cell viability at 10^-5 M incubated for 48 hrs by sulforhodamine B assay relative to control; conditions: SF-295, 48 h, read-out: Activity
[20] = tested on: SF-539; test: Antiproliferative activity against human SF539 cells assessed as cell viability at 10^-5 M incubated for 48 hrs by sulforhodamine B assay relative to control; conditions: SF-539, 48 h, read-out: Activity
[21] = tested on: SN12C; test: Antiproliferative activity against human SN12C cells assessed as cell viability at 10^-5 M incubated for 48 hrs by sulforhodamine B assay relative to control; conditions: read-out: Activity
[22] = tested on: SK-OV-3; test: Antiproliferative activity against human SKOV3 cells assessed as cell viability at 10^-5 M incubated for 48 hrs by sulforhodamine B assay relative to control; conditions: SK-OV-3, 48 h, read-out: Activity
[23] = tested on: OVCAR-3; test: Antiproliferative activity against human OVCAR3 cells assessed as cell viability at 10^-5 M incubated for 48 hrs by sulforhodamine B assay relative to control; conditions: OVCAR-3, 48 h, read-out: Activity
[24] = tested on: TK-10; test: Antiproliferative activity against human TK10 cells assessed as cell viability at 10^-5 M incubated for 48 hrs by sulforhodamine B assay relative to control; conditions: TK-10, 48 h, read-out: Activity
[25] = tested on: ACHN; test: Antiproliferative activity against human ACHN cells assessed as cell viability at 10^-5 M incubated for 48 hrs by sulforhodamine B assay relative to control; conditions: read-out: Activity
[26] = tested on: Hs-578T; test: Antiproliferative activity against human Hs 578T cells assessed as cell viability at 10^-5 M incubated for 48 hrs by sulforhodamine B assay relative to control; conditions: read-out: Activity
[27] = tested on: HCC 2998; test: Antiproliferative activity against human HCC2998 cells assessed as cell viability at 10^-5 M incubated for 48 hrs by sulforhodamine B assay relative to control; conditions: HCC 2998, 48 h, read-out: Activity
[28] = tested on: MOLT-4; test: Antiproliferative activity against human MOLT4 cells assessed as cell viability at 10^-5 M incubated for 48 hrs by sulforhodamine B assay relative to control; conditions: MOLT-4, 48 h, read-out: Activity
[29] = tested on: UO-31; test: Antiproliferative activity against human UO31 cells assessed as cell viability at 10^-5 M incubated for 48 hrs by sulforhodamine B assay relative to control; conditions: UO-31, 48 h, read-out: Activity
[30] = tested on: NCI-H322M; test: Antiproliferative activity against human NCI-H322M cells assessed as cell viability at 10^-5 M incubated for 48 hrs by sulforhodamine B assay relative to control; conditions: read-out: Activity
[31] = tested on: M14; test: Antiproliferative activity against human M14 cells assessed as cell viability at 10^-5 M incubated for 48 hrs by sulforhodamine B assay relative to control; conditions: M14, 48 h, read-out: Activity
[32] = tested on: PC-3; test: Antiproliferative activity against human PC3 cells assessed as cell viability at 10^-5 M incubated for 48 hrs by sulforhodamine B assay relative to control; conditions: PC-3, 48 h, read-out: Activity

Compound	viability at 10 µM [1]	viability at 10 µM [2]	viability at 10 µM [3]	viability at 10 µM [4]	viability at 10 µM [5]	viability at 10 µM [6]	viability at 10 µM [7]	viability at 10 µM [8]	viability at 10 µM [9]	viability at 10 µM [10]	viability at 10 µM [11]	viability at 10 µM [12]	viability at 10 µM [13]	viability at 10 µM [14]	viability at 10 µM [15]	viability at 10 µM [16]	viability at 10 µM [17]	viability at 10 µM [18]	viability at 10 µM [19]	viability at 10 µM [20]	also measured
COc1c2c(cc3c1C(=O)NC1C3CC(O)C(O)C1O)OCCO2 (racemic)	99.3%	94%	93.9%	113%	100%	84.9%	91.6%	106%	101%	102%	104%	108%	103%	105%	95.6%	99%	105%	104%	99.6%	106%	viability at 10 µM [21]: 103%; viability at 10 µM [22]: 98.6%; viability at 10 µM [23]: 104%; viability at 10 µM [24]: 95.7%; viability at 10 µM [25]: 103%; viability at 10 µM [26]: 96.2%; viability at 10 µM [27]: 106%; viability at 10 µM [28]: 99.6%; viability at 10 µM [29]: 86.4%; viability at 10 µM [30]: 93.5%; viability at 10 µM [31]: 105%; viability at 10 µM [32]: 97.7%
COc1cc2c(c(OC)c1OC)C(=O)NC1C2CC(O)C(O)C1O (racemic)	102%	94.1%	96.1%	108%	117%	100%	91.4%	107%	97.7%	102%	112%	110%	108%	106%	96.6%	104%	107%	109%	98.3%	100%	viability at 10 µM [21]: 104%; viability at 10 µM [22]: 99.9%; viability at 10 µM [23]: 112%; viability at 10 µM [24]: 98.5%; viability at 10 µM [25]: 99.7%; viability at 10 µM [26]: 108%; viability at 10 µM [27]: 101%; viability at 10 µM [28]: 104%; viability at 10 µM [29]: 87.1%; viability at 10 µM [30]: 104%; viability at 10 µM [31]: 98.5%; viability at 10 µM [32]: 96.5%
O=C1NC2C(CC(O)C(O)C2O)c2cc3c(c(O)c21)OCO3 (racemic)	-25.3%	-7.77%	1.73%	1.95%	-63.6%	-8.46%	-19%	-14.9%	-48.8%	-37.3%	-53.4%	-42.2%	-38.2%	-13.4%	1.86%	-72.7%	-23.7%	-0.05%	-11.5%	-29.7%	viability at 10 µM [21]: -18.4%; viability at 10 µM [22]: -11.2%; viability at 10 µM [23]: -10.8%; viability at 10 µM [24]: -12.6%; viability at 10 µM [25]: -45.5%; viability at 10 µM [26]: -14.2%; viability at 10 µM [27]: -22.8%; viability at 10 µM [28]: -6.14%; viability at 10 µM [29]: -31%; viability at 10 µM [30]: -14.7%; viability at 10 µM [31]: -81.7%; viability at 10 µM [32]: -8.66%
O=C1NC2C(CC(O)C(O)C2O)c2cc3c(c(O)c21)OCCO3 (racemic)	-4.29%	4.9%	-13.3%	-0.44%	-48.7%	-15.8%	-20.1%	-14.5%	-41.1%	-24.2%	-29.7%	1.45%	-49%	3%	1.56%	-52.1%	-8.78%	4.85%	-14.9%	-24.1%	viability at 10 µM [21]: -9.95%; viability at 10 µM [22]: -10.9%; viability at 10 µM [23]: -13%; viability at 10 µM [24]: -11.9%; viability at 10 µM [25]: -14.5%; viability at 10 µM [26]: -9.44%; viability at 10 µM [27]: -46.2%; viability at 10 µM [28]: -0.8%; viability at 10 µM [29]: -19.7%; viability at 10 µM [30]: -24.3%; viability at 10 µM [31]: -45.8%; viability at 10 µM [32]: -9.66%
